Laboratory results as given in EP4201929A1, “QUINOXALINE THIOREDOXIN REDUCTASE INHIBITORS” (geneXplain GmbH, priority 2021, dated 2023).

Assays:
HCT116-Cas9 = experiment: Growth suppression assay (resazurin); assay type: cell-based; conditions: 48 hours of incubation, hydrochloride
Method: (§1) Breast, colon, ovarian, cervical, liver and lung carcinoma cell lines were grown in DMEM supplemented with 10% FBS, and antibiotics were cultured at 37 °C and 5% CO2. […] To obtain an oxygen concentration of 0.05%, the cells were flushed with the premixed gas continuously throughout the experiment.
(§2) Cells were grown in 96-well plates at a density of 3000 cells per well with or without doxycycline and treated with compounds. After 48 hours of incubation the proliferative cell reagent resazurin (Thermo Fisher Scientific) was added to the cells. The degree of resazurin reduction, which reflects cell viability, was measured by microplate reader by monitoring the absorbance at 570 nm and 600 nm, according to the manufacturer.

MCF7-Cas9 = experiment: Growth suppression assay (resazurin); assay type: cell-based; conditions: 48 hours of incubation, hydrochloride
Method: as §1, §2

Cl.N#Cc1c(-c2cccnc2)[n+]([O-])c2cc(F)c(N3CCOCC3)cc2[n+]1[O-] [1d*HCl, 6-Fluoro-7-(morpholin-4-yl)-3-(pyridin-3-yl)quinoxaline-2-carbonitrile-1,4-dioxide hydrochloride]
IC50 (HCT116-Cas9): 690 nM | IC50 (MCF7-Cas9): 1600 nM
